Laboratory results reported in ChEMBL document CHEMBL1131535, “Conformation-function relationship of vitamin D: conformational analysis predicts potential side-chain structure” (1998).

Assays:
U-937 = assay: Relative differentiating activity of U 937 cells when the reference value of […] is defined as 1.; assay type: functional, Homo sapiens
HL-60 = assay: Relative differentiating activity of HL-60 cells when the reference value of […] is defined as 1.; assay type: functional, Homo sapiens

| SMILES | Relative differentiating activity (U-937) | Relative differentiating activity (HL-60) |
| --- | --- | --- |
| C=C1/C(=C\C=C2/CCC[C@]3(C)[C@@H](C(C)OCCCC(O)(CC)CC)CC[C@@H]23)C[C@@H](O)C[C@@H]1O (single isomer, unassigned) [LEXACALCITOL] | 20 |  |
| C=C1/C(=C\C=C2/CCCC3(C)C2CCC3[C@H](C)/C=C/CCC(C)(C)O)C[C@@H](O)C[C@@H]1O (stereo not given in full) |  | 10 |
| C=C1/C(=C\C=C2/CCCC3(C)C([C@H](C)CC#CC(C)(C)O)=CCC23)C[C@@H](O)C[C@@H]1O (stereo not given in full) |  | 10 |
| C=C1/C(=C\C=C2/CCC[C@]3(C)[C@@H]([C@H](C)/C=C/C=C/C(O)(CC)CC)CC[C@@H]23)C[C@@H](O)C[C@@H]1O [SEOCALCITOL] | 67 |  |
| C=C1/C(=C\C=C2/CCCC3(C)C2CCC3[C@@H](C)CCCCC(O)(CC)CC)C[C@@H](O)C[C@@H]1O (stereo not given in full) | 200 |  |
| C=C1/C(=C\C=C2/CCCC3(C)C2CCC3[C@H](C)CCCC(F)(F)C(C)(C)O)C[C@@H](O)C[C@@H]1O (stereo not given in full) |  | 10 |
| C=C1/C(=C\C=C2/CCCC3(C)C2CCC3[C@H](C)/C=C/CCCC(C)(C)O)C[C@@H](O)C[C@@H]1O (stereo not given in full) |  | 10 |
| C=C1/C(=C\C=C2/CCCC3(C)C2CCC3[C@@H](C)CCCCC(C)(C)O)C[C@@H](O)C[C@@H]1O (stereo not given in full) | 200 |  |
| C=C1/C(=C\C=C2/CCC[C@]3(C)[C@@H]([C@@H](C)OCCCC(O)(CC)CC)CC[C@@H]23)C[C@@H](O)C[C@@H]1O [LEXACALCITOL] | 20000 |  |
| C=C1/C(=C\C=C2/CCCC3(C)C([C@H](C)CC#CC(O)(C(F)(F)F)C(F)(F)F)=CCC23)C[C@@H](O)C[C@@H]1O (stereo not given in full) |  | 80 |
| C=C1/C(=C\C=C2/CCCC3(C)C2CCC3[C@@H](C)OCCCC(C)(C)O)C[C@@H](O)C[C@@H]1O (stereo not given in full) | 1176 |  |
| C=C1/C(=C\C=C2/CCCC3(C)C2CCC3[C@H](C)/C=C/CC(O)(CC)CC)C[C@@H](O)C[C@@H]1O (stereo not given in full) |  | 60 |
| C=C1/C(=C\C=C2/CCCC3(C)C2CCC3[C@@H](C)/C=C/CCC(O)(CC)CC)C[C@@H](O)C[C@@H]1O (stereo not given in full) | 1000 |  |
| C=C1/C(=C\C=C2/CCCC3(C)C2CCC3[C@H](C)/C=C/CC(O)(C(F)(F)F)C(F)(F)F)C[C@@H](O)C[C@@H]1O (stereo not given in full) |  | 30 |
| C=C1/C(=C\C=C2/CCCC3(C)C2CCC3[C@H](C)CCCCC(O)(CC)CC)C[C@@H](O)C[C@@H]1O (stereo not given in full) | 5 |  |
